For 41 compounds, melting point results are on record in patent US20080021069A1, “Receptor Function Regulating Agent” (TAKEDA PHARMACEUTICAL COMPANY LIMITED, priority 2004, published 2008).

Consider `Clc1ccc(CSc2nc3ccc(Cl)cc3n2-c2ccc(-c3cnco3)cc2)cc1` [Example 136, 6-Chloro-2-[(4-chlorobenzyl)thio]-1-[4-(1,3-oxazol-5-yl)phenyl]-1H-benzimidazole], for which the melting point (usually the temperature of the solid-liquid transition) is 130 to 131 °C.

Turning to `CCOc1ccc(-n2c(NCc3ccc(Cl)cc3)nc3ccc(Cl)cc32)cc1.Cl` [Example 68, N-(4-Chlorobenzyl)-6-chloro-1-(4-ethoxyphenyl)-1H-benzimidazol-2-amine hydrochloride], the melting point is 173 to 175 °C.

Take `COc1cccc(-n2c(SCc3ccc(Cl)cc3)nc3ccc(Cl)cc32)c1` [Example 17, 6-Chloro-2-[(4-chlorobenzyl)thio]-1-(3-methoxyphenyl)-1H-benzimidazole]: the melting point was 100 to 101 °C.

For the compound `Oc1ccc(-n2c(SCc3ccc(Cl)cc3)nc3ccc(Cl)cc32)cc1` [Example 9, 4-{6-Chloro-2-[(4-chlorobenzyl)thio]-1H-benzimidazol-1-yl}phenol], the melting point lay in the range of 210 to 212 °C.

`CCOc1ccc(-n2c(NCc3ccc(C(C)(C)C)cc3)nc3ccc(Cl)cc32)cc1.Cl` [Example 70, N-(4-tert-Butylbenzyl)-6-chloro-1-(4-ethoxyphenyl)-1H-benzimidazol-2-amine hydrochloride]: the melting point was in the range of 188 to 189 °C.

For the compound `CCC(=O)c1ccc(-n2c(SCc3ccc(Cl)cc3)nc3ccc(Cl)cc32)cc1` [Example 40, 1-(4-{6-Chloro-2-[(4-chlorobenzyl)thio]-1H-benzimidazol-1-yl}phenyl)propan-1-one], the melting point fell in the range of 176 to 177 °C.

In turn, `COCOc1ccc(-n2c(SCc3cccnc3)nc3ccc(Cl)cc32)cc1` [Example 56, 6-Chloro-1-[4-(methoxymethoxy)phenyl]-2-[(pyridin-3-ylmethyl)thio]-1H-benzimidazole] yielded a melting point of 101 to 102 °C.

The compound `CCOc1ccc(-n2c(NCc3ccc(Br)cc3)nc3ccc(Cl)cc32)cc1.Cl` [Example 69, N-(4-Bromobenzyl)-6-chloro-1-(4-ethoxyphenyl)-1H-benzimidazol-2-amine hydrochloride] registered a melting point of 135 to 138 °C.

Regarding `CCOCc1ccc(-n2c(SCc3ccc(Cl)cc3)nc3ccc(Cl)cc32)cc1` [Example 117, 6-Chloro-2-[(4-chlorobenzyl)thio]-1-[4-(ethoxymethyl)phenyl]-1H-benzimidazole], the melting point was 95 to 96 °C.

Take `CCCCOc1ccc(-n2c(SCc3ccc(Cl)cc3)nc3ccc(Cl)cc32)cc1` [Example 22, 1-(4-Butoxyphenyl)-6-chloro-2-[(4-chlorobenzyl)thio]-1H-benzimidazole]: the melting point is 96 to 97 °C.

Regarding `CS(=O)(=O)Oc1ccc(-n2c(SCc3ccc(Cl)cc3)nc3ccc(Cl)cc32)cc1` [Example 25, 4-{6-Chloro-2-[(4-chlorobenzyl)thio]-1H-benzimidazol-1-yl}phenyl methanesulfonate], the melting point lay in the range of 128 to 129 °C.

As for `COc1ccc(-n2c(SCc3ccc(Cl)cc3)nc3ccc(Cl)cc32)cc1` [Example 1, 6-Chloro-2-[(4-chlorobenzyl)thio]-1-(4-methoxyphenyl)-1H-benzimidazole], the melting point is 116 to 117 °C.

`CCCOc1ccc(-n2c(NCc3ccc(Br)cc3)nc3cc(Cl)ccc32)cc1` [Example 84, N-(4-Bromobenzyl)-5-chloro-1-(4-propoxyphenyl)-1H-benzimidazol-2-amine] came in with a melting point of 112 to 113 °C.

The compound `Clc1ccc(CSc2nc3ccc(Cl)cc3n2-c2ccc(OCC3CC3)cc2)cc1` [Example 11, 6-Chloro-2-[(4-chlorobenzyl)thio]-1-[4-(cyclopropylmethoxy)phenyl]-1H-benzimidazole] came in with a melting point of 137 to 138 °C.

As to `CCCCOc1ccc(-n2c(NCc3ccc(Cl)cc3)nc3cc(Cl)ccc32)cc1` [Example 87, 1-(4-Butoxyphenyl)-5-chloro-N-(4-chlorobenzyl)-1H-benzimidazol-2-amine], the melting point was in the range of 100 to 101 °C.

In the case of `CCOc1ccc(-n2c(SCc3ccc(Br)cc3)nc3cccc(Cl)c32)cc1` [Example 137, 2-[(4-Bromobenzyl)thio]-7-chloro-1-(4-ethoxyphenyl)-1H-benzimidazole], the melting point was 143 to 144 °C.

In turn, `CCOC(=O)c1ccc(-n2c(SCc3ccc(Cl)cc3)nc3ccc(Cl)cc32)cc1` [Example 19, Ethyl 4-{6-chloro-2-[(4-chlorobenzyl)thio]-1H-benzimidazol-1-yl}benzoate] showed a melting point of 100 to 101 °C.

For the compound `CCOC(=O)N1CCC(n2c(SCc3ccc(Br)cc3)nc3ccc(Cl)cc32)CC1` [Example 59, Ethyl 4-{2-[(4-bromobenzyl)thio]-6-chloro-1H-benzimidazol-1-yl}piperidine-1-carboxylate], the melting point lay in the range of 123 to 124 °C.

Compound `COCc1ccc(-n2c(SCc3ccc(Cl)cc3)nc3ccc(Cl)cc32)cc1` [Example 116, 6-Chloro-2-[(4-chlorobenzyl)thio]-1-[4-(methoxymethyl)phenyl]-1H-benzimidazole] showed a melting point of 97 to 98 °C.

`CON(C)C(=O)c1ccc(-n2c(SCc3ccc(Cl)cc3)nc3ccc(Cl)cc32)cc1` [Example 39, 4-{6-Chloro-2-[(4-chlorobenzyl)thio]-1H-benzimidazol-1-yl}-N-methoxy-N-methylbenzamide] came in with a melting point of 125 to 126 °C.

As to `CCOc1ccc(-n2c(SCc3ccc(C#N)cc3)nc3ccc(Cl)cc32)cc1` [Example 35, 4-({[6-Chloro-1-(4-ethoxyphenyl)-1H-benzimidazol-2-yl]thio}methyl)benzonitrile], the melting point is 154 to 155 °C.

Take `CCOc1ccc(-n2c(SCc3ccc(C(C)(C)C)cc3)nc3cccc(Cl)c32)cc1` [Example 139, 2-[(4-tert-Butylbenzyl)thio]-7-chloro-1-(4-ethoxyphenyl)-1H-benzimidazole]: the melting point fell in the range of 175 to 176 °C.

As to `COc1ccc(-n2c(SCc3ccccc3)nc3ccc(Cl)cc32)cc1` [Example 21, 2-(Benzylthio)-6-chloro-1-(4-methoxyphenyl)-1H-benzimidazole], the melting point lay in the range of 89 to 90 °C.

`COc1ccccc1-n1c(SCc2ccc(Cl)cc2)nc2ccc(Cl)cc21` [Example 18, 6-Chloro-2-[(4-chlorobenzyl)thio]-1-(2-methoxyphenyl)-1H-benzimidazole] returned a melting point of 124 to 125 °C.

`CCOCOc1ccc(-n2c(SCc3ccc(Cl)cc3)nc3ccc(Cl)cc32)cc1` [Example 31, 6-Chloro-2-[(4-chlorobenzyl)thio]-1-[4-(ethoxymethoxy)phenyl]-1H-benzimidazole] returned a melting point of 130 to 131 °C.

`CCOc1ccc(-n2c(SCc3ccc(-c4ccccc4)cc3)nc3ccc(Cl)cc32)cc1` [Example 34, 2-[(Biphenyl-4-ylmethyl)thio]-6-chloro-1-(4-ethoxyphenyl)-1H-benzimidazole] had a melting point of 116 to 117 °C.

As for `Cl.FC(F)(F)COc1ccc(-n2c(SCc3ccc(Cl)cc3)nc3ccc(Cl)cc32)cc1`, the melting point was in the range of 106 to 107 °C.

`Clc1ccc2nc(SCc3ccccc3)n(-c3ccccc3)c2c1` [Example 49, 2-(Benzylthio)-6-chloro-1-phenyl-1H-benzimidazole] showed a melting point of 82 to 83 °C.

In turn, `Clc1ccc(CSc2nc3ccc(Cl)cc3n2-c2ccccn2)cc1` [Example 130, 6-Chloro-2-[(4-chlorobenzyl)thio]-1-(pyridin-2-yl)-1H-benzimidazole] had a melting point of 107 to 108 °C.

`CCOc1ccc(-n2c(SCc3ccc(C(C)C)cc3)nc3ccc(Cl)cc32)cc1.Cl` registered a melting point of 96 to 100 °C.

Turning to `O=C(O)c1ccc(-n2c(SCc3ccc(Cl)cc3)nc3ccc(Cl)cc32)cc1` [Example 42, 4-{6-Chloro-2-[(4-chlorobenzyl)thio]-1H-benzimidazol-1-yl}benzoic acid], the melting point was 265 to 266 °C.

Regarding `CC(C)(C)OC(=O)Nc1ccc(-n2c(SCc3ccc(Cl)cc3)nc3ccc(Cl)cc32)cc1` [Example 114, tert-Butyl (4-{6-chloro-2-[(4-chlorobenzyl)thio]-1H-benzimidazol-1-yl}phenyl)carbamate], the melting point lay in the range of 163 to 164 °C.

Compound `FC(F)(F)Oc1ccc(-n2c(SCc3ccc(Cl)cc3)nc3ccc(Cl)cc32)cc1` [Example 141, 6-Chloro-2-[(4-chlorobenzyl)thio]-1-[4-(trifluoromethoxy)phenyl]-1H-benzimidazole] registered a melting point of 88 to 89 °C.

As for `COc1ccc(-n2c(SCc3ccc(Cl)cc3)nc3ccc(Cl)cc32)cn1.Cl`, the melting point fell in the range of 80 to 86 °C.

As for `COCCOc1ccc(-n2c(SCc3ccc(Cl)cc3)nc3ccc(Cl)cc32)cc1` [Example 24, 6-Chloro-2-[(4-chlorobenzyl)thio]-1-[4-(2-methoxyethoxy)phenyl]-1H-benzimidazole], the melting point was in the range of 88 to 90 °C.

As for `Clc1ccc(CSc2nc3ccc(Cl)cc3n2-c2ccc(OCc3ccccc3)cc2)cc1` [Example 119, 1-[4-(Benzyloxy)phenyl]-6-chloro-2-[(4-chlorobenzyl)thio]-1H-benzimidazole], the melting point lay in the range of 193 to 194 °C.

In the case of `CC(C)Oc1ccc(-n2c(SCc3ccc(Cl)cc3)nc3ccc(Cl)cc32)cc1` [Example 23, 6-Chloro-2-[(4-chlorobenzyl)thio]-1-(4-isopropoxyphenyl)-1H-benzimidazole], the melting point was 102 to 103 °C.

`COc1ccc(CSc2nc3ccc(Cl)cc3n2-c2ccc(OC)cc2)cc1` [Example 6, 6-Chloro-2-[(4-methoxybenzyl)thio]-1-(4-methoxyphenyl)-1H-benzimidazole] yielded a melting point of 119 to 120 °C.

In the case of `CCOc1ccc(-n2c(SCc3ccc(Br)cc3)nc3ccc(Cl)cc32)cc1` [Example 30, 2-[(4-Bromobenzyl)thio]-6-chloro-1-(4-ethoxyphenyl)-1H-benzimidazole], the melting point was 136 to 137 °C.

For the compound `OCCOc1ccc(-n2c(SCc3ccc(Cl)cc3)nc3ccc(Cl)cc32)cc1` [Example 16, 2-(4-{6-Chloro-2-[(4-chlorobenzyl)thio]-1H-benzimidazol-1-yl}phenoxy)ethanol], the melting point fell in the range of 113 to 114 °C.

Regarding `COCOc1ccc(-n2c(SCc3ccccn3)nc3ccc(Cl)cc32)cc1` [Example 55, 6-Chloro-1-[4-(methoxymethoxy)phenyl]-2-[(pyridin-2-ylmethyl)thio]-1H-benzimidazole], the melting point lay within 95 to 96 °C.
